Measurements as given in paper PMC11749787, “Natural flavonoid glycosides Chrysosplenosides I & A rejuvenate intestinal stem cell aging via activation of PPARγ signaling” (Life Medicine, 2024).

Target: T1, PPARγ (peroxisome proliferator-activated receptor-gamma) (Homo sapiens, UniProt P37231)
T1 construct: gene PPARG; human PPARγ protein with a His tag (HY-P7999, MCE)
T1 sequence (P37231 1-505): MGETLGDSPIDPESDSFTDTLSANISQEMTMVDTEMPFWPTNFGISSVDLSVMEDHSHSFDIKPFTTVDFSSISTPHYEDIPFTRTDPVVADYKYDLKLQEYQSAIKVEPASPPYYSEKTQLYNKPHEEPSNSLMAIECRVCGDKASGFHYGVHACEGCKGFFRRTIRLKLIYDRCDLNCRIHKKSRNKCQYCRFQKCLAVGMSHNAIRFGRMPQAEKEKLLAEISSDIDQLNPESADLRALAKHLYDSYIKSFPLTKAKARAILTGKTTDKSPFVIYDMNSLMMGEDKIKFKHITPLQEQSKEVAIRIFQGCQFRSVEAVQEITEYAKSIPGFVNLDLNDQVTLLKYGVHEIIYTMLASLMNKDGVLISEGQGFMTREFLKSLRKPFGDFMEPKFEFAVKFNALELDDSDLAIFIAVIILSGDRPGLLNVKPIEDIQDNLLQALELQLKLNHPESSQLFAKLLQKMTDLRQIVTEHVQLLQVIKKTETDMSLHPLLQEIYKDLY
Assay: bio-layer interferometry (Octet K2, NTA biosensor, immobilized His-tagged PPARγ)
Format: binding

Kd [µM]	Compound
32.4	Chrysosplenoside A [CA2]
75.3	COc1cc(O[C@@H]2O[C@H](CO)[C@@H](O)[C@H](O)[C@H]2O)c(-c2oc3cc(OC)c(OC)c(O)c3c(=O)c2OC)cc1O [CA1, Chrysosplenoside I]
